Assay results: patent publication US20250092065A1, “2-(INDAZOL-5-YL)-6-(PIPERIDIN-4-YL)-1,7-NAPHTHYRIDINE DERIVATIVES AND RELATED COMPOUNDS AS MODULATORS FOR SPLICING NUCLEIC ACIDS AND FOR THE TREATMENT OF PROLIFERATIVE DISEASES” (REMIX THERAPEUTICS INC., priority 2022, published 2025)

Columns and labels:
K562 cells = experiment: Cell Titer Glo 2.0 cell viability (toxicity) assay, K562; settings: 500 cells/well, 72 hours
SMN2 mRNA = experiment: RT-qPCR splicing assay, SMN2 mRNA; assay type: cell-based, human; settings: Homo sapiens, canonical junction qPCR panel, Table 4; read-out: SMN2 IC50 (decrease in CJ mRNA levels)
In short: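 A673 or K562 cells treated 24 h at 37 °C with 11-point 3-fold dilutions (top final 10 uM, DMSO ≤0.25%). Lysates analysed by one-step RT-qPCR for canonical (CJ) and alternative-exon (AJ) junctions, normalized to GAPDH, GUSB or PPIA. ΔΔCt vs DMSO, RQ = 2^(−ΔΔCt), expressed as percentage response.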

MYB = experiment: HiBiT protein abundance assay, MYB (K562 HiBiT knock-in); assay type: cell-based, human; settings: HiBiT knock-in K562 cells, 24 hours, top dose 10 μM
In short: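 Luminescence readout: Nano-Glo HiBiT lytic detection after 24 h compound exposure of K562 HiBiT knock-in cells, 10000 cells/well. Dosing 10-pt, 3-fold, top 10 μM final. % response vs untreated parental K562 and DMSO controls; 4PL fit, IC50 = concentration giving 50% protein abundance.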

| Compound | IC50 (SMN2 mRNA) [µM] | IC50 (MYB) [µM] | Effect of Exemplary Compounds on Cell Viability, K562 (K562 cells) |
| --- | --- | --- | --- |
| Cc1nc2c(C)c(O)c(-c3ccc4nc(N5CC[C@H](NC(C)(C)C)C5)ccc4n3)cc2o1 [Compound 214] | < 0.1 | < 0.1 | A (A represents <100 nM) |
| Cc1nc2c(C)c(O)c(-c3ccc4nc(N5CC[C@H](NC6CC6)C5)ccc4n3)cc2o1 [Compound 216] | < 0.1 | < 0.1 | B (B represents 100-1000 nM) |
| Cc1nc2c(C)c(O)c(-c3ccc4nc(N5CC[C@@H](NC6CC6)C5)ccc4n3)cc2o1 [Compound 217] | < 0.1 | < 0.1 | B (B represents 100-1000 nM) |
| Cn1cc2cc(-c3ccc4nc(N5CCC(NC6(C)CC6)C5)ccc4n3)c(O)cc2n1 (stereo not drawn) [Compound 219] | < 0.1 | < 0.1 | A (A represents <100 nM) |
| Cc1nc2cc(O)c(-c3ccc4nc(N5CC[C@@H](NC6CCC6)C5)ccc4n3)cc2o1 [Compound 229] | < 0.1 | < 0.1 | B (B represents 100-1000 nM) |
| Cc1nc2cc(O)c(-c3ccc4nc(N5CC[C@H](NC6CCC6)C5)ccc4n3)cc2o1 [Compound 230] | < 0.1 | 0.1 to 1 | B (B represents 100-1000 nM) |
| Cc1nc2cc(O)c(-c3ccc4nc(N5CCC(NC(C)C)C5)ccc4n3)cc2o1 (stereo not drawn) [Compound 231] | < 0.1 | < 0.1 | A (A represents <100 nM) |
| Cc1nc2c(C)c(O)c(-c3ccc4nc(N5CCC(NC6CCC6)C5)ccc4n3)cc2o1 (stereo not drawn) [Compound 235] | < 0.1 | < 0.1 | B (B represents 100-1000 nM) |
| Cc1nc2c(C)c(O)c(-c3ccc4nc(N5CC[C@@H](NC6CCC6)C5)ccc4n3)cc2o1 [Compound 236] | < 0.1 | < 0.1 | B (B represents 100-1000 nM) |
| Cc1nc2c(C)c(O)c(-c3ccc4nc(N5CC[C@H](NC6CCC6)C5)ccc4n3)cc2o1 [Compound 237] | < 0.1 | < 0.1 | B (B represents 100-1000 nM) |
| Cc1cc(-c2ccc3nc(N4CCC(NC(C)(C)C)C4)ccc3n2)nc2cn(C)nc12 (stereo not drawn) [Compound 248] | 0.1 to 1 | 1 to 10 | C (C represents 1000-9999 nM) |
| Cc1c(O)c(-c2ccc3nc(N4CC[C@@H](NC(C)(C)C)C4)ccc3n2)cc2cn(C)nc12 [Compound 249] | < 0.1 | < 0.1 | A (A represents <100 nM) |
| Cc1c(O)c(-c2ccc3nc(N4CC[C@H](NC(C)(C)C)C4)ccc3n2)cc2cn(C)nc12 [Compound 250] | < 0.1 | < 0.1 | B (B represents 100-1000 nM) |
| COc1c(-c2ccc3nc(N4CCC(NC(C)(C)C)C4)ccc3n2)cc2c[nH]nc2c1C (stereo not drawn) [Compound 251] | > 10 | > 10 | B (B represents 100-1000 nM) |
| Cc1c(O)c(-c2ccc3nc(N4CCC(NCC5CC5)C4)ccc3n2)cc2cn(C)nc12 (stereo not drawn) [Compound 284, 5-(6-{3-[(cyclopropylmethyl)amino]pyrrolidin-1-yl}-1,5-naphthyridin-2-yl)-2,7-dimethylindazol-6-ol] | < 0.1 | < 0.1 | B (B represents 100-1000 nM) |
| Cc1c(O)c(-c2ccc3nc(N4CCC(NC5CCC5)C4)ccc3n2)cc2cn(C)nc12 (stereo not drawn) [Compound 288, 5-{6-[3-(cyclobutylamino)pyrrolidin-1-yl]-1,5-naphthyridin-2-yl}-2,7-dimethylindazol-6-ol] | < 0.1 | < 0.1 | B (B represents 100-1000 nM) |
| Cc1nc2c(F)c(O)c(-c3ccc4nc(N5CCC(NC6CCC6)C5)ccc4n3)cc2o1 (stereo not drawn) [Compound 293, 6-{6-[3-(cyclobutylamino)pyrrolidin-1-yl]-1,5-naphthyridin-2-yl}-4-fluoro-2-methyl-1,3-benzoxazol-5-ol] | < 0.1 | < 0.1 | A (A represents <100 nM) |
| Cn1cc2cc(-c3ccc4nc(N5CCC(NC67CC(C6)C7)C5)ccc4n3)c(O)cc2n1 (stereo not drawn) [Compound 297, 5-[6-(3-{bicyclo[1.1.1]pentan-1-ylamino}pyrrolidin-1-yl)-1,5-naphthyridin-2-yl]-2-methylindazol-6-ol] | 0.1 to 1 | 1 to 10 | D (D represents greater than 10 μM in K562 cells) |
| Cn1cc2nc(-c3ccc4nc(N5CCC(NC(C)(C)C)C5)ccc4n3)c(O)cc2n1 (stereo not drawn) [Compound 298, 5-{6-[3-(tert-butylamino)pyrrolidin-1-yl]-1,5-naphthyridin-2-yl}-2-methylpyrazolo[4,3-b]pyridin-6-ol] | < 0.1 | < 0.1 | B (B represents 100-1000 nM) |

The next lines start with results.

| IC50 (SMN2 mRNA) [µM] | IC50 (MYB) [µM] | Compound | Effect of Exemplary Compounds on Cell Viability, K562 (K562 cells) |
| --- | --- | --- | --- |
| < 0.1 | < 0.1 | Cc1nc2c(C)c(O)c(-c3ccc4nc(N5CC[C@H](N[C@H]6C[C@H](F)C6)C5)ccc4n3)cc2o1 (single isomer, unassigned) [Compound 351] | B (B represents 100-1000 nM) |
| < 0.1 | < 0.1 | Cc1nc2c(C)c(O)c(-c3ccc4nc(N5CC[C@@H](N[C@H]6C[C@H](F)C6)C5)ccc4n3)cc2o1 (single isomer, unassigned) [Compound 352] | B (B represents 100-1000 nM) |
| < 0.1 | < 0.1 | Cc1nc2c(F)c(O)c(-c3ccc4nc(N5CC[C@@H](NC6(C)CC6)C5)ccc4n3)cc2o1 (stereo in doubt) [Compound 326, 4-fluoro-2-methyl-6-{6-[(3 S)-3-[(1-methylcyclopropyl)amino]pyrrolidin-1-yl]-1,5-naphthyridin-2-yl}-1,3-benzoxazol-5-ol] | A (A represents <100 nM) |
| < 0.1 | < 0.1 | Cc1nc2c(F)c(O)c(-c3ccc4nc(N5CCC(NC6(C)CC6)C5)ccc4n3)cc2o1 (stereo in doubt) [Compound 327, 4-fluoro-2-methyl-6-{6-[(3R)-3-[(1-methylcyclopropyl)amino]pyrrolidin-1-yl]-1,5-naphthyridin-2-yl}-1,3-benzoxazol-5-ol] | B (B represents 100-1000 nM) |
| < 0.1 | < 0.1 | Cn1cc2cc(-c3ccc4nc(N5CC[C@H](N[C@H]6C[C@@H](F)C6)C5)ccc4n3)c(O)cc2n1 [Compound 299, 2-methyl-5-{6-[(3S)-3-{[(1s,3s)-3-fluorocyclobutyl]amino}pyrrolidin-1-yl]-1,5-naphthyridin-2-yl}indazol-6-ol] | B (B represents 100-1000 nM) |
| < 0.1 | 0.1 to 1 | Cc1c(O)c(-c2ccc3nc(N4CCC(NC5COC5)C4)ccc3n2)cc2cn(C)nc12 (stereo not drawn) [Compound 302, 2,7-dimethyl-5-{6-[3-(oxetan-3-ylamino)pyrrolidin-1-yl]-1,5-naphthyridin-2-yl}Indazol-6-ol] | C (C represents 1000-9999 nM) |
| < 0.1 | < 0.1 | Cc1nc2c(C)c(O)c(-c3ccc4nc(N5CCC(NC6(C)CC6)C5)ccc4n3)cc2o1 (stereo not drawn) [Compound 309, 2,4-dimethyl-6-(6-{3-[(1-methylcyclopropyl)amino]pyrrolidin-1-yl}-1,5-naphthyridin-2-yl)-1,3-benzoxazol-5-ol] | B (B represents 100-1000 nM) |
| < 0.1 | < 0.1 | Cc1nc2c(C)c(O)c(-c3ccc4nc(N5CCC(NC(C)C)C5)ccc4n3)cc2o1 (stereo not drawn) [Compound 312, 6-{6-[3-(isopropylamino)pyrrolidin-1-yl]-1,5-naphthyridin-2-yl}-2,4-dimethyl-1,3-benzoxazol-5-ol] | A (A represents <100 nM) |
| < 0.1 | < 0.1 | Cn1cc2cc(-c3ccc4nc(N5CCC(NC6CCC6)C5)ccc4n3)c(O)c(F)c2n1 (stereo not drawn) [Compound 315, 5-{6-[3-(cyclobutylamino)pyrrolidin-1-yl]-1,5-naphthyridin-2-yl}-7-fluoro-2-methylindazol-6-ol] | A (A represents <100 nM) |
| < 0.1 | < 0.1 | Cc1c(O)c(-c2ccc3nc(N4CCC(NC(C)C)C4)ccc3n2)cc2cn(C)nc12 (stereo not drawn) [Compound 318, 5-{6-[3-(isopropylamino)pyrrolidin-1-yl]-1,5-naphthyridin-2-yl}-2,7-dimethylindazol-6-ol] | A (A represents <100 nM) |
| < 0.1 | < 0.1 | Cc1c(O)c(-c2ccc3nc(N4CC[C@H](NC(C)C)C4)ccc3n2)cc2cn(C)nc12 [Compound 320] | B (B represents 100-1000 nM) |
| < 0.1 | < 0.1 | Cc1nc2c(F)c(O)c(-c3ccc4nc(N5CCC(NC6(C)CC6)C5)ccc4n3)cc2o1 (stereo not drawn) [Compound 325, 4-fluoro-2-methyl-6-(6-{3-[(1-methylcyclopropyl)amino]pyrrolidin-1-yl}-1,5-naphthyridin-2-yl)-1,3-benzoxazol-5-ol] | B (B represents 100-1000 nM) |
